Measured values as given in article PMC8541546, “Identification of HLA-A2-Restricted Mutant Epitopes from Neoantigens of Esophageal Squamous Cell Carcinoma” (Vaccines, 2021).

System: KYSE140-MUT cells
Assay: Intracellular cytokine staining (IFN-γ) of CTLs from immunized Tg mice
Type: in vivo, HLA-A2.1/K^b Tg mice
Settings: 100 μg/mouse s.c. with CpG ODN 1826 once a week for three weeks; spleen lymphocytes re-stimulated with MUT peptide; KYSE140-MUT target cells; n = 5 per group
Protocol: To investigate whether neoepitopes could induce a peptide-specific T cell response in vivo, HLA-A2.1/K^b Tg mice were used and immunized according to the procedure de-scribed previously. In brief, mutant peptides or WH-mutant peptides (100 μg per mouse) with CpG-ODN 1826 (30 μg per mouse) were injected s.c. in the back of HLA-A2.1/K^b Tg mice (five mice per group, randomly grouped) once a week for three weeks. The normal saline (NS) group was immunized s.c. only with CpG ODN 1826 (30 μg/mouse) once a week for three weeks. Five days after the last injection, spleen lymphocytes were isolated and cultured at the concentration of 5 × 10^6 cells/mL in RPMI 1640 medium. These cells were induced by the same mutant peptides (10 μg/mL) that were used for in vivo stimulation and mIL-2 (30 U/mL) for a week. Intracellular cytokine staining assay (ICS) and cytotoxic assay (E: T ratios = 20:1, 40:1, 80:1) were performed after a week induced in vitro [22].
To test the MUT peptides stimulation of CTL response in vivo, peptide-specific T cells induced from Tg mice were co-cultured with tumor cell lines transfected with WT or MUT minigenes, as described in the in vitro assay. […] Intracellular cytokines were marked by anti-mouse IFN-γ or anti-mouse granzyme B, respectively, and analyzed by flow cytometry (BD FACSCelesta™, USA).

Row | Sequence | IFN-γ secretion of CTLs (IFN-γ+ CD8+ T cells)
1 | ILWRQDINL [NFE2L2-D13N] | 1.5%
2 | LLGPNSFEV [TP53-R267P] | 1.1%
